# Results as given in ChEMBL document CHEMBL5143546, “Synthesis and biological evaluation of quinolone derivatives as transthyretin amyloidogenesis inhibitors and fluorescence sensors” (Bioorg Med Chem, 2022).
# What was measured:
# Transthyretin [1] = target: T1, Transthyretin (Homo sapiens, UniProt P02766); experiment: Inhibition of wild-type Transthyretin (unknown origin) expressed in Escherichia coli expression system assessed as acid mediated fibril formation at 7.2 uM measured after 72 hrs by UV-vis spectrophotometry; design: scale not given: the % may be the effect or the level left
# Transthyretin [2] = target: T1, Transthyretin; experiment: Inhibition of wild-type Transthyretin (unknown origin) expressed in Escherichia coli expression system assessed as acid mediated fibril formation at 3.6 uM measured after 72 hrs by UV-vis spectrophotometry; design: scale not given: the % may be the effect or the level left
# [3] = Metabolic stability in rat plasma assessed as percentage of compound remaining at 1 uM measured after 1 hr by LC-MS/MS analysis; assay type: ADME, cell-free; conditions: read-out: Stability
# [4] = system: Transthyretin (Homo sapiens), P02766 [V50M]; experiment: Inhibition of Transthyretin V30M mutant (unknown origin) assessed as acid mediated fibril formation at 3.6 uM measured after 72 hrs by UV-vis spectrophotometry; design: scale not given: the % may be the effect or the level left
# [5] = Metabolic stability in human liver microsome assessed as percentage of compound remaining at 1 uM measured after 30 min by LC-MS/MS analysis; assay type: ADME; conditions: liver microsomes, read-out: Stability
# [6] = Metabolic stability in rat liver microsome assessed as percentage of compound remaining at 1 uM measured after 30 min by LC-MS/MS analysis; assay type: ADME; conditions: liver microsomes, read-out: Stability
# [7] = Metabolic stability in rat liver microsome assessed as half life at 1 uM by LC-MS/MS analysis; assay type: ADME; conditions: liver microsomes
# [8] = Metabolic stability in rat plasma assessed as half life at 1 uM by LC-MS/MS analysis; assay type: ADME, cell-free
# [9] = system: Transthyretin (Homo sapiens), P02766 [V50M]; experiment: Inhibition of Transthyretin V30M mutant (unknown origin) assessed as acid mediated fibril formation at 1.8 uM measured after 72 hrs by UV-vis spectrophotometry; design: scale not given: the % may be the effect or the level left
# Transthyretin [10] = target: T1, Transthyretin; experiment: Inhibition of urea-induced Transthyretin denaturation in human plasma preincubated for 1 hr followed by urea addition by Western blot analysis; assay type: cell-free
# [11] = Metabolic stability in human liver microsome assessed as half life at 1 uM by LC-MS/MS analysis; assay type: ADME; conditions: liver microsomes
Activity (Transthyretin [1]) [%],Activity (Transthyretin [2]) [%],"remaining at 1 h, 1 µM [3] [%]",Activity [4] [%],"remaining at 0.5 h, 1 µM [5] [%]","remaining at 0.5 h, 1 µM [6] [%]",half-life at 1 µM [7] [h],half-life at 1 µM [8] [h],Activity [9] [%],IC50 (Transthyretin [10]) [µM],half-life at 1 µM [11] [h],SMILES
2.5,31.8,–,–,–,–,–,–,–,–,–,COc1cc2c(C)c(CCc3cc(C)c(O)c(C)c3)c(=O)n(C)c2cc1N
11.6,34.8,–,–,–,–,–,–,–,–,–,Cc1n[nH]c(C)c1CCc1c(C)c2ccc(N)cc2n(C)c1=O
6,15.7,86.8,22.9,71.5,59.9,0.758,2.33,55.3,11.4,1.01,COc1cc2c(C)c(/C=C/c3cc(C)c(O)c(C)c3)c(=O)n(C)c2cc1N
2.3,16.4,–,22.1,–,–,–,–,54.8,14.4,–,Cc1cc(CCc2c(C)c3ccc(N)cc3n(C)c2=O)cc(C)c1O
3.4,12.8,≥ 100,16.7,76.9,57.2,0.603,≥ 10,49.6,3.1,1.59,Cc1cc(/C=C/c2c(C)c3ccc(N)cc3n(C)c2=O)cc(C)c1O
1.8,28.1,–,–,–,–,–,–,–,–,–,Cc1n[nH]c(C)c1/C=C/c1c(C)c2ccc(N)cc2n(C)c1=O
5.9,24.5,–,–,–,–,–,–,–,–,–,Cc1cc(/C=C/c2c(C)c3ccc(O)cc3n(C)c2=O)cc(C)c1O
3.6,–,–,15.9,–,–,–,–,–,–,–,O=C(O)c1ccc2nc(-c3cc(Cl)cc(Cl)c3)oc2c1
3.1,20.8,–,26.5,–,–,–,–,56.6,13.7,–,Cc1cc(CCc2c(C)c3ccc(O)cc3n(C)c2=O)cc(C)c1O
14.3,–,–,–,–,–,–,–,–,–,–,COc1cc2c(C)c(/C=C/c3c(C)n[nH]c3C)c(=O)n(C)c2cc1N
